Measurements published in PubChem BioAssay AID732 (Emory University Molecular Libraries Screening Center, 2007).
Several values for one entry are separate records, joined by “and”; a condition that tells them apart may be missing. Equal entries are not always repeated. Activity calls are given as the source filed them. How the calls were made is not given here.

Tested on: in vivo angiogenesis, blood vessel count
Experiment: angiogenesis inhibition in living animals, in vivo study, HTS (AID 732);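 further: zebrafish embryos dosed at one day post fertilization; 0% = reference inhibitor and 100% = plate mean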
Settings: hits give low values;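 tested at 30 µM in the well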

COc1ccccc1OCC(O)CN1CCN(CC(=O)Nc2c(C)cccc2C)CC1 (stereo not given)
vessel count % control: 97.9% (inactive)

CC(C(=O)O)c1cccc(C(=O)c2ccccc2)c1 (stereo not given)
vessel count % control: 122% (inactive)

CC(C)(C(=O)O)c1ccc(C(O)CCCN2CCC(C(O)(c3ccccc3)c3ccccc3)CC2)cc1 (stereo not given)
vessel count % control: 116% (inactive)

NNc1nncc2ccccc12
vessel count % control: 92.2% (inactive)

CC1=C(/C=C/C(C)=C/C=C/C(C)=C\C(=O)O)C(C)(C)CCC1
vessel count % control: 76.1% (inactive)

Nc1nc(N)c2nc(CNc3ccc(C(=O)NC(CCC(=O)O)C(=O)O)cc3)cnc2n1 (stereo not given)
vessel count % control: 99.6% (inactive)

Ic1ccc(N2CCN(Cc3c[nH]c4ncccc34)CC2)cc1
vessel count % control: 99.4% (inactive)

C[C@]12C[C@H](O)[C@H]3[C@@H](CCC4=CC(=O)CC[C@@]43C)[C@@H]1CC[C@@H]2C(=O)CO
vessel count % control: 103% (inactive)

Fc1ccc([C@@H]2CCNC[C@H]2COc2ccc3c(c2)OCO3)cc1
vessel count % control: 138% (inactive)

c1ccc(CN2CCC3(CCCc4ccccc43)CC2)cc1
vessel count % control: 128% (inactive)

O=C1NCN(c2ccccc2)C12CCN(CCCC(c1ccc(F)cc1)c1ccc(F)cc1)CC2
vessel count % control: 84.4% (inactive)

CCCCNc1ccc(C(=O)OCCN(C)C)cc1
vessel count % control: 100% (inactive)

O=C1NC(O)=NC1(c1ccccc1)c1ccccc1
vessel count % control: 106% (inactive)

Cc1cccc(C)c1NC(=O)C[N+](C)(C)C
vessel count % control: 87.6% (inactive)

COc1cccc(OC)c1OCCNCC1CSc2ccccc2O1 (stereo not given)
vessel count % control: 71.1% (inactive)

Cc1ccc(C(=O)O[C@H](C(=O)O)[C@H](OC(=O)c2ccc(C)cc2)C(=O)O)cc1 (tested in a mixture with another compound)
vessel count % control: 109% (inactive)

NC(=NCCC[C@H](N)C(=O)O)N[N+](=O)[O-]
vessel count % control: 96.2% (inactive)

Nc1cc(=O)[nH]c(N)n1
vessel count % control: 119% (inactive)

CCCn1c(=O)c2[nH]c(C3CCCC3)nc2n(CCCOC(=O)c2ccc(S(=O)(=O)F)cc2)c1=O
vessel count % control: 117% (inactive)

CCCCOc1cc(CC2CNC(=O)N2)ccc1OC (stereo not given)
vessel count % control: 106% (inactive)

COc1ccc(C2CNC(=O)C2)cc1OC1CCCC1 (stereo not given)
vessel count % control: 96.6% (inactive)

CC(=O)c1ccc(S(=O)(=O)NC(=O)NC2CCCCC2)cc1
vessel count % control: 84.8% (inactive)

OC[C@H]1O[C@@H](n2cnc3cncnc32)[C@H](O)[C@@H]1O
vessel count % control: 82.1% (inactive)

C=CCN1CCC2(C)c3cc(O)ccc3CC1C2C (stereo not given)
vessel count % control: 109% (inactive)

COC(=O)N1CCN(C(=O)Cc2ccc(Cl)c(Cl)c2)C(CN2CCCC2)C1 (stereo not given)
vessel count % control: 116% (inactive)

COc1cc2nc(N3CCN(C(=O)C4CCCO4)CC3)nc(N)c2cc1OC (stereo not given)
vessel count % control: 83.3% (inactive)

CN1[C@@H](CC(=O)c2ccccc2)CCC[C@H]1C[C@H](O)c1ccccc1
vessel count % control: 107% (inactive)

CCOC(=O)Nc1ccc(NCc2ccc(F)cc2)nc1N
vessel count % control: 83.6% (inactive)

CN(C)C/C=C(/c1ccc(Br)cc1)c1cccnc1
vessel count % control: 104% (inactive)

CNCCNS(=O)(=O)c1cccc2cnccc12
vessel count % control: 140% (inactive)

C=CCN1CC[C@]23c4c5ccc(O)c4O[C@H]2/C(=N/NC(=O)c2ccccc2)CC[C@@]3(O)[C@H]1C5
vessel count % control: 120% (inactive)

Cc1cn([C@H]2C=C[C@@H](CO)O2)c(=O)[nH]c1=O
vessel count % control: 99.1% (inactive)

CC(C)NNC(=O)c1ccncc1
vessel count % control: 118% (inactive)

C[C@]12CC[C@@H]3c4ccc(O)cc4CC[C@H]3[C@@H]1CCC2=O
vessel count % control: 111% (inactive)

N#Cc1c(-c2ccccc2)no[n+]1[O-]
vessel count % control: 120% (inactive)

N[C@@H](CCCC(=O)O)C(=O)O
vessel count % control: 130% (inactive)

Oc1[nH]c2c(Cl)cc(Cl)cc2c1C1=Nc2ccc(Br)cc2/C1=N\OCCN1CCNCC1
vessel count % control: 90.9% (inactive)

CC(C)(C)c1cc(C=C(C#N)C#N)cc(C(C)(C)C)c1O
vessel count % control: 0% (inactive)

CSc1ccc(C(=O)c2[nH]c(=O)[nH]c2C)cc1
vessel count % control: 76.7% (inactive)

Nc1ncnc2c1ncn2C1CCCO1 (stereo not given)
vessel count % control: 101% (inactive)

CC(CCc1ccc(O)cc1)NCCc1ccc(O)c(O)c1 (stereo not given)
vessel count % control: 92.8% (inactive)

Nc1ccc(N2C(=O)c3ccccc3C2=O)c(Cl)c1
vessel count % control: 78.4% (inactive)

CCN(CC)C(=O)N[C@@H]1C=C2c3cccc4[nH]cc(c34)C[C@H]2N(C)C1
vessel count % control: 75.3% (inactive)

Cn1c(=O)c2c(ncn2C)n(C)c1=O
vessel count % control: 113% (inactive)

O=c1[nH]oc2c1CCNC2
vessel count % control: 103% (inactive)

Clc1ccc(N2CCN(Cc3c[nH]c4ncccc34)CC2)cc1
vessel count % control: 83.7% (inactive)

CC[N+](C)(C)c1cccc(O)c1
vessel count % control: 114% (inactive)

CCN(CC)CCOCCOC(=O)C1(c2ccccc2)CCCC1
vessel count % control: 108% (inactive)

O=c1cc(N2CCOCC2)oc2c(-c3ccccc3)cccc12
vessel count % control: 120% (inactive)

CN1C2CCC1CC(OC(c1ccccc1)c1ccc(Cl)cc1)C2 (stereo not given)
vessel count % control: 98.7% (inactive)

NC(=O)c1ncn([C@@H]2O[C@H](CO)[C@@H](O)[C@H]2O)n1
vessel count % control: 63.2% (inactive)

CCCCCC(O)c1cccc(OCc2ccc3ccccc3n2)c1 (stereo not given)
vessel count % control: 83.4% (inactive)

Cc1cccc2c(C3=Nc4ccccc4C3=O)c(O)[nH]c12
vessel count % control: 26.6%

C[C@]12CC[C@H]3[C@@H](CCC4C[C@H](O)CC[C@@]43C)[C@@H]1CC[C@@H]2O (stereo not given in full)
vessel count % control: 106% (inactive)

CNCCc1ccc(O)c(O)c1
vessel count % control: 96.5% (inactive)

Oc1cc2c(c(Cl)c1O)CCNCC2c1ccccc1 (stereo not given)
vessel count % control: 111% (inactive)

CCC(=O)N1CCN(C(=O)c2ccccc2)CC1
vessel count % control: 134% (inactive)

CCC1(c2ccc(N)cc2)CCC(=O)NC1=O (stereo not given)
vessel count % control: 98.8% (inactive)

O=C(O)[C@@H]1C[C@@H](C(=O)O)N1
vessel count % control: 99.6% (inactive)

CC(C)(CO)Cc1cc(C(C)(C)C)c(O)c(C(C)(C)C)c1
vessel count % control: 105% (inactive)

C[C@H](O)C(=O)C1=Nc2c(nc(N)[nH]c2=O)NC1
vessel count % control: 117% (inactive)

OC(CCN1CCCCC1)(c1ccccc1)C1CCCCC1 (stereo not given)
vessel count % control: 98.5% (inactive)

O=[N+]([O-])c1ccc(CSc2ncnc3c2ncn3[C@@H]2O[C@H](CO)[C@H](O)C2O)cc1 (stereo not given in full)
vessel count % control: 80.2% (inactive)

CCCC(=O)NCCc1c2n(c3ccc(OC)cc13)Cc1ccccc1-2
vessel count % control: 111% (inactive)

O=C1CC2(CCCC2)CC(=O)N1CCCCN1CCN(c2ncccn2)CC1
vessel count % control: 114% (inactive)

CCCN(CCC)C1Cc2cc(OC)c(OC)cc2C1
vessel count % control: 72.2% (inactive)

COc1ccccc1CNCCCCCCNCCCCCCCCNCCCCCCNCc1ccccc1OC
vessel count % control: 113% (inactive)

CN(C)c1nc(N)c(C(=O)N=C(N)N)nc1Cl
vessel count % control: 106% (inactive)

CC1=C[C@@H]2c3cccc4[nH]cc(c34)C[C@H]2N(C)C1
vessel count % control: 81.3% (inactive)

CC(C)Cn1c(=O)n(C)c(=O)c2[nH]cnc21
vessel count % control: 78.7% (inactive)

CC(C)(C)NCC(O)c1ccc(O)c(CO)c1 (stereo not given)
vessel count % control: 122% (inactive) and 102% (inactive)

C[N+](C)(C)CCCCCC[N+](C)(C)C
vessel count % control: 115% (inactive) and 117% (inactive)

COc1ccccc1N1CCN(CCCNc2c(C)c(=O)n(C)c(=O)n2C)CC1
vessel count % control: 70.6% (inactive)

COC1=C(OC)C(=O)c2ccccc2C1=O
vessel count % control: 115% (inactive)

COc1cccc(OC)c1OCCNCC1COc2ccccc2O1 (stereo not given)
vessel count % control: 90.6% (inactive)

CCCN1CCC[C@@H](c2cccc(O)c2)C1
vessel count % control: 91.2% (inactive)

O=c1[nH]c(=O)n([C@H]2C[C@H](O)[C@@H](CO)O2)cc1Br
vessel count % control: 105% (inactive)

CO/N=C(\C(=O)N[C@@H]1C(=O)N2C(C(=O)O)=C(CSc3nc(=O)c(O)nn3C)CSC12)c1csc(N)n1 (stereo not given in full)
vessel count % control: 117% (inactive)

CCCCCCCC/C=C\CCCCCCCC(=O)NCCO
vessel count % control: 102% (inactive)

CN[C@H]1CC[C@@H](c2ccc(Cl)c(Cl)c2)c2ccccc21
vessel count % control: 98% (inactive)

O=C(O)C1CCNCC1
vessel count % control: 99.7% (inactive)

O=C1N(c2ccccc2)c2ccccc2C1(Cc1ccncc1)Cc1ccncc1
vessel count % control: 96.6% (inactive)

COC(=O)C(N)Cc1ccc(Cl)cc1 (stereo not given)
vessel count % control: 82.4% (inactive)

O=C1O/C(=C/Br)CCC1c1cccc2ccccc12 (stereo not given)
vessel count % control: 87.4% (inactive)

C[n+]1cc2c3c(ccc2c2ccc4cc5c(cc4c21)OCO5)OCO3
vessel count % control: 0% (inactive)

CC(=O)[C@]1(O)Cc2c(O)c3c(c(O)c2[C@@H](O[C@H]2C[C@H](N)[C@H](O)[C@H](C)O2)C1)C(=O)c1ccccc1C3=O
vessel count % control: 0% (inactive)

Cc1ccc([N+](=O)[O-])cc1S(=O)(=O)N(C)C
vessel count % control: 108% (inactive)

CC1=C(/C=C/C(C)=C/C=C/C(C)=C/C(=O)O)C(C)(C)CCC1
vessel count % control: 70% (inactive)

C[N+](C)(C)CC=O
vessel count % control: 104% (inactive)

O=C1C(c2c(O)[nH]c3c(Cl)cc(Cl)cc23)=Nc2ccccc21
vessel count % control: 60.2% (inactive)

Cc1ccc2[nH]c(O)c(C3=Nc4ccc(Br)cc4C3=O)c2c1
vessel count % control: 108% (inactive)

CCCN(CCC)CCc1c[nH]c2ccc(C(N)=O)cc12
vessel count % control: 80.1% (inactive)

CCCCCCCCCCCCCCSCC(=O)O
vessel count % control: 93.7% (inactive)

NCCCS(=O)(=O)O
vessel count % control: 144% (inactive)

CCn1ccnc1CC1COc2ccccc2O1 (stereo not given)
vessel count % control: 100% (inactive)

CCNC(=O)C1OC(n2cnc3c(NCc4ccccc4)ncnc32)C(O)C1O (stereo not given)
vessel count % control: 110% (inactive)

CCCn1c(=O)c2[nH]c(-c3ccc(OCC(=O)NCCN)cc3)nc2n(CCC)c1=O
vessel count % control: 99.8% (inactive)

CN1CCN(CCCN2c3ccccc3Sc3ccc(C(F)(F)F)cc32)CC1
vessel count % control: 105% (inactive)

NCC(O)(CS(=O)(=O)O)c1ccc(Cl)cc1 (stereo not given)
vessel count % control: 94.5% (inactive)

C[C@@H](N)Cc1cnc[nH]1
vessel count % control: 97.8% (inactive)
